{
  "source": "patent US20080255053A1",
  "about": "“METHOD FOR THE THERAPEUTIC MANAGEMENT OF ENDOMETRIOSIS” (Aeterna Zentaris GmbH, priority 1999, published 2008)",
  "test_system": "patients with confirmed endometriosis",
  "assay": "Weekly 3 mg Cetrorelix for 8 weeks in patients with confirmed endometriosis",
  "format": "in vivo, human",
  "details": "3 mg weekly for 8 weeks",
  "note": "Non-standard residues stand in square brackets, D forms with d. Residues, ends and D or L forms follow the SMILES beside them. dPhe(4-Cl) = N[C@H](Cc1ccc(Cl)cc1)C(=O)O; d2Nal = N[C@H](Cc1ccc2ccccc2c1)C(=O)O; dCit = NC(=O)NCCC[C@@H](N)C(=O)O; d3Pal = N[C@H](Cc1cccnc1)C(=O)O",
  "data": [
    {"compound": "CC(=O)N[C@H](Cc1ccc2ccccc2c1)C(=O)N[C@H](Cc1ccc(Cl)cc1)C(=O)N[C@H](Cc1cccnc1)C(=O)N[C@@H](CO)C(=O)N[C@@H](Cc1ccc(O)cc1)C(=O)N[C@H](CCCNC(N)=O)C(=O)N[C@@H](CC(C)C)C(=O)N[C@@H](CCCNC(=N)N)C(=O)N1CCC[C@H]1C(=O)N[C@H](C)C(N)=O", "note": "[Cetrorelix acetate] (Ac-[d2Nal][dPhe(4-Cl)][d3Pal]SY[dCit]LRP[dA]-NH2)", "values": [
      {"measurement": "hot flushes or other hormonal (estradiol) withdrawal symptoms", "result": "avoiding any hot flushes or other withdrawal symptoms"},
      {"measurement": "proliferation of the endometrium at the end of treatment (histological biopsies)", "result": "no proliferation of the endometrium"},
      {"measurement": "hot flushes or other hormonal (estradiol) withdrawal symptoms", "setting": "listed as Cetrorelix", "result": "without any signs of estradiol withdrawal symptoms"},
      {"measurement": "proliferation of the endometrium at the end of treatment (histological biopsies)", "setting": "listed as Cetrorelix", "result": "without proliferation of the endometrium"}
    ]}
  ]
}
